In this assay the target is T1, dopamine D1 receptor (Rattus norvegicus, UniProt P18901).
T1 construct: from tissue; host or cells: rat striatum homogenate
The assay is described as follows: binding to dopamine D1 receptor in homogenates from rat striatum. On the procedure:
The compounds of the invention are useful because of their pharmacological activity. In particular, the compounds of the invention are active in assays predictive for antipsychotic effect. Thus the compounds of formula I were tested for their binding to dopamine D1 receptor in homogenates from rat striatum using the method described (Life Science vol. 37, p. 1971 (1985) P. Andersen et al.) and the result appears from Table I. IC50 is the affinity of tested compounds for the dopamine D1 receptor.

T1 sequence (P18901 whole entry): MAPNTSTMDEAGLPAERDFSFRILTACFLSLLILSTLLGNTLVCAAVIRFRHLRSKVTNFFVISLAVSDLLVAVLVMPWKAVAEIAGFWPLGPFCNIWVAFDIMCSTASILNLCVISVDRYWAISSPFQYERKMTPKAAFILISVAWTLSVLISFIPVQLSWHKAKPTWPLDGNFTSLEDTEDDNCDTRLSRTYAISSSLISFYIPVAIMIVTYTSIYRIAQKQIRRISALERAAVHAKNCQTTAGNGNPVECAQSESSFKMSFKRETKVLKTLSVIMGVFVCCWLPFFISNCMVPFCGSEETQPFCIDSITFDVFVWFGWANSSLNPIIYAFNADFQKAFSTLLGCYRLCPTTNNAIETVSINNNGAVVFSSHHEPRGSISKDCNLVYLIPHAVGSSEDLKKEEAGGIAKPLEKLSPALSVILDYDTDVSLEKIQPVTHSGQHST

As usually defined, the IC50 is the point on the concentration scale where inhibition reaches its midpoint. A higher IC50 goes with lower potency. `CN1CCc2c(ccc3ccoc23)C(c2cccc3ccoc23)C1` (racemic) [Example 1, 6-(Benzofuran-7-yl)-8-methyl-7,8,9,10-tetrahydro-6H-furo 2,3-g! 3!benzazepine] gave an IC50 of 12 nM.

The values above are taken from US5512562A, “Tricyclic 2,3,4,5-tetrahydro-1H-3-benzapines” (Novo Nordisk A/S, priority 1993, dated 1996).
